Assays:
Format in all cases: binding
[1] = target: T1, kinases (KINOMEscan panel) (Homo sapiens, UniProt O15075); conditions: NEW KINOMEscan
T1 sequence (O15075 1-740): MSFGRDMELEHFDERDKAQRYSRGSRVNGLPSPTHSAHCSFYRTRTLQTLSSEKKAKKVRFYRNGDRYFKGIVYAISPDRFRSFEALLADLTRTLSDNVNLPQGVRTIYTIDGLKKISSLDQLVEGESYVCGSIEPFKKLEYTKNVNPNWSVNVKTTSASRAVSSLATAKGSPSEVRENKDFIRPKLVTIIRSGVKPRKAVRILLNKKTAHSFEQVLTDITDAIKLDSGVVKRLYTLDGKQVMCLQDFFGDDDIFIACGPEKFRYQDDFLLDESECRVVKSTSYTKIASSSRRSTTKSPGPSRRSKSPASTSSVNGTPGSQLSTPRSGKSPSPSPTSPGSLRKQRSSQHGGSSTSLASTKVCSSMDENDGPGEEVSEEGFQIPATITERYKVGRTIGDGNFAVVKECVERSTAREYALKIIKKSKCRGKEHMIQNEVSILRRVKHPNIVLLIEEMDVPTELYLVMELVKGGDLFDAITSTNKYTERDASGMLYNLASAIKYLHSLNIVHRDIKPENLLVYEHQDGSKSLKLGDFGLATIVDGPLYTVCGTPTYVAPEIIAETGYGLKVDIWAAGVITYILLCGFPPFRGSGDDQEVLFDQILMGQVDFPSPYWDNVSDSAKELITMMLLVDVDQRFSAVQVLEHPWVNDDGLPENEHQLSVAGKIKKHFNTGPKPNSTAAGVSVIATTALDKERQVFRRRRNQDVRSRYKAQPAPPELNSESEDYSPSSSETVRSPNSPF

[2] = target: kinases (KINOMEscan panel) (Homo sapiens, UniProt Q99755); conditions: NEW KINOMEscan
[3] = target: kinases (KINOMEscan panel) (Homo sapiens, UniProt Q86V86); conditions: kinase PIM3; NEW KINOMEscan
[4] = target: kinases (KINOMEscan panel) (Homo sapiens, UniProt O75116); conditions: kinase ROCK2; NEW KINOMEscan
[5] = target: kinases (KINOMEscan panel) (Homo sapiens, UniProt O75460); conditions: NEW KINOMEscan
[6] = target: T2, kinases (KINOMEscan panel) (Homo sapiens, UniProt P41743); conditions: PRKCI; NEW KINOMEscan
T2 sequence (P41743 1-596): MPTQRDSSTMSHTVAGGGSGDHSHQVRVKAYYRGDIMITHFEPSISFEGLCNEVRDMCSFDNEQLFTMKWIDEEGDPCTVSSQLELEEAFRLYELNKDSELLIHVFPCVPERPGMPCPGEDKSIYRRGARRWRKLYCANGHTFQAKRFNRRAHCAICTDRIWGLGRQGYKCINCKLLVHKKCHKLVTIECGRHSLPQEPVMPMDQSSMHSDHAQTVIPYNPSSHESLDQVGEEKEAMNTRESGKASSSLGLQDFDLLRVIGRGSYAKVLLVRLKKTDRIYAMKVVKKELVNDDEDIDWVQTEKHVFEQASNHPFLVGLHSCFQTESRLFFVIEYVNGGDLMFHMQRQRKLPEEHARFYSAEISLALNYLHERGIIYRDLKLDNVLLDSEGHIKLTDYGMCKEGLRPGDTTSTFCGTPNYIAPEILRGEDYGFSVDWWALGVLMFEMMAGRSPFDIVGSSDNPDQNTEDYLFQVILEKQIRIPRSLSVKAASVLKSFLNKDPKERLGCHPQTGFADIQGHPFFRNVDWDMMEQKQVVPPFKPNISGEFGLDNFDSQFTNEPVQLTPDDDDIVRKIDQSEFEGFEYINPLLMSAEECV

[7] = target: T3, kinases (KINOMEscan panel) (Homo sapiens, UniProt O14920)
T3 sequence (O14920 1-756): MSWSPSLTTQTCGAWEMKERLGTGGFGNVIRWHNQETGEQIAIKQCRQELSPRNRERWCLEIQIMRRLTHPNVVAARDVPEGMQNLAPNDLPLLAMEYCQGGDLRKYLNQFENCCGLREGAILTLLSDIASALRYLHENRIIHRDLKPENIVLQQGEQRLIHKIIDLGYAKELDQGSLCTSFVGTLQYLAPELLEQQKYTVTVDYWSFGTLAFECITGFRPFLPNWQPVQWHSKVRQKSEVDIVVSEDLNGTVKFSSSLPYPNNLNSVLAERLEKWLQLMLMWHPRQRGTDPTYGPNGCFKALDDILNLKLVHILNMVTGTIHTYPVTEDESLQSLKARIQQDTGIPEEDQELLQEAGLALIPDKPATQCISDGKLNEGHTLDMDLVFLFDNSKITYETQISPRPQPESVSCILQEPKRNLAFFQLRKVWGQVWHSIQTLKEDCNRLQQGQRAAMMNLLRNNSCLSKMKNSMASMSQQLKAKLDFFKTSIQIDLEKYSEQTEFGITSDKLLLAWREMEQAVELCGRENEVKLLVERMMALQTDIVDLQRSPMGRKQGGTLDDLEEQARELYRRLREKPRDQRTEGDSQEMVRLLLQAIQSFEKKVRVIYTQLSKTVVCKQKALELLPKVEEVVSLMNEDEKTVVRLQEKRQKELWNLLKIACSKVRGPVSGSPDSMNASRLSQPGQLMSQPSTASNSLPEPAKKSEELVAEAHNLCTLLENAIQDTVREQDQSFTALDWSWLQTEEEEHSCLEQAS

[8] = target: kinases (KINOMEscan panel) (Homo sapiens, UniProt P29597); conditions: NEW KINOMEscan; for KINOMEscan TYK2(JH1domain-catalytic): kinase TYK2(JH1domain-catalytic)
[9] = target: kinases (KINOMEscan panel) (Homo sapiens, UniProt Q8TDX7); conditions: NEK7; NEW KINOMEscan
Sequence of kinases (KINOMEscan panel) (Homo sapiens, UniProt Q8TDX7) (Q8TDX7 whole entry): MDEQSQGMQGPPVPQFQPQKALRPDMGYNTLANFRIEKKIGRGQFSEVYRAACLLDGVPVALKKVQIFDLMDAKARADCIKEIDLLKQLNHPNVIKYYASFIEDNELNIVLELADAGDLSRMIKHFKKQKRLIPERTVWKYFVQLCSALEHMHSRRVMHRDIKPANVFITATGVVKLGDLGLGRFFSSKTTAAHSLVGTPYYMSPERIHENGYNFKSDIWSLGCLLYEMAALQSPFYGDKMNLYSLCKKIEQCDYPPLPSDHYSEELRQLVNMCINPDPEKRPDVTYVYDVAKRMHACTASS

Sequence of kinases (KINOMEscan panel) (Homo sapiens, UniProt P29597) (P29597 whole entry): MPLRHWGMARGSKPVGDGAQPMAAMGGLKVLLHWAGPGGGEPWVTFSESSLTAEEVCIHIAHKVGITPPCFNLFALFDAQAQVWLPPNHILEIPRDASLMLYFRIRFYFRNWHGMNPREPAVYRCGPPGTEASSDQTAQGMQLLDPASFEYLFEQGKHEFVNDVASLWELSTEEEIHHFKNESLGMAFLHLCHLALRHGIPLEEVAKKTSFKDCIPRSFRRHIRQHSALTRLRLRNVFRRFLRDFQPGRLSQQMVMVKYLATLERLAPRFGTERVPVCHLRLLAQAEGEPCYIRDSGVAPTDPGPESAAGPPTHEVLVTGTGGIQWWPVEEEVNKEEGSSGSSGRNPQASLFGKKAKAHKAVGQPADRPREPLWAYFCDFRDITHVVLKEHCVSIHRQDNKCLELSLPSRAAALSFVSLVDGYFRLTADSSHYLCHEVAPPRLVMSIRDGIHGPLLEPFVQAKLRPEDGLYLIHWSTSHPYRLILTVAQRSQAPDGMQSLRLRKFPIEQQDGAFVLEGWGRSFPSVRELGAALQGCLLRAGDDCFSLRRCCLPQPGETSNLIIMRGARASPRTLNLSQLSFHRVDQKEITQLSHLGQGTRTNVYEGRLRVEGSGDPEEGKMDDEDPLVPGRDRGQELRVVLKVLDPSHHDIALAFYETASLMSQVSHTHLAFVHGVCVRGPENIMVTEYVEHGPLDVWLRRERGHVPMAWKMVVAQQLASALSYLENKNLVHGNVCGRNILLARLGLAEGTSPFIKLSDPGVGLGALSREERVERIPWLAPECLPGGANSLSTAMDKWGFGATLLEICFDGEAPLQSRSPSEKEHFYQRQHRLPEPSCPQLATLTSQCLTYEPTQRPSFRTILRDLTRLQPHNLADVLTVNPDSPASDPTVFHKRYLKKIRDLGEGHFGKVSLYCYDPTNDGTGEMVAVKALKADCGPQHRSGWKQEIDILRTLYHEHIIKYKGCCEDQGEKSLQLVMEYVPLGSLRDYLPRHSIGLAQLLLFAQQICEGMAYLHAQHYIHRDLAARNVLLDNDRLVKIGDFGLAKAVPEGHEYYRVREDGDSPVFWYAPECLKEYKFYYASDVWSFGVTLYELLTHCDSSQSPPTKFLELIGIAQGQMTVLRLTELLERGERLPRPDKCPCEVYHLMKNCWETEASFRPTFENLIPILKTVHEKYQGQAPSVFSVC
Sequence of kinases (KINOMEscan panel) (Homo sapiens, UniProt O75460) (O75460 19-977): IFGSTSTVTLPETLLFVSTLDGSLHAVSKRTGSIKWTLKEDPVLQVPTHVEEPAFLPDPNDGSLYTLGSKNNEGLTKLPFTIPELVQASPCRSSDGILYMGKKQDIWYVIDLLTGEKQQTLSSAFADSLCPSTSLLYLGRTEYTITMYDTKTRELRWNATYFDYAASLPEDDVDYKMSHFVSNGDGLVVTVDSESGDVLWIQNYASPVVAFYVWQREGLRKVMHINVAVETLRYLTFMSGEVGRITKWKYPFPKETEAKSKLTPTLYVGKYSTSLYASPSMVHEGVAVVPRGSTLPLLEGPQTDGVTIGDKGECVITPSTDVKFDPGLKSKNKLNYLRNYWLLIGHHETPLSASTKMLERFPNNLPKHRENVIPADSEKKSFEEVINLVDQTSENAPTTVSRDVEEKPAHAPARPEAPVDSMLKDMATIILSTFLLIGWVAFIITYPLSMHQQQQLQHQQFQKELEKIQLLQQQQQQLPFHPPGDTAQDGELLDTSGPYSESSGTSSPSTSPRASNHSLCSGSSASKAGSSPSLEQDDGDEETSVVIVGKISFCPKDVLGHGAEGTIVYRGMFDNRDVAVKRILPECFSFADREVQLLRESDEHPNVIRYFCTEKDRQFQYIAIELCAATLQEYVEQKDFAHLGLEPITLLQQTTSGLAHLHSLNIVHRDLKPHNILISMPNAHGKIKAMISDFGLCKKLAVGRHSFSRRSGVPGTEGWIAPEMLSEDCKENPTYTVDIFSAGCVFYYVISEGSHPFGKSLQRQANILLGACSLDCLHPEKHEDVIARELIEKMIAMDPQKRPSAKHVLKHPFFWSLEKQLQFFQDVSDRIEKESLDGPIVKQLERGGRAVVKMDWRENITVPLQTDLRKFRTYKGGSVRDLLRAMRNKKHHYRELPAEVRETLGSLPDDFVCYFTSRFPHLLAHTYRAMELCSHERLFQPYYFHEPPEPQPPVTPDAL
Sequence of kinases (KINOMEscan panel) (Homo sapiens, UniProt Q99755) (Q99755 whole entry): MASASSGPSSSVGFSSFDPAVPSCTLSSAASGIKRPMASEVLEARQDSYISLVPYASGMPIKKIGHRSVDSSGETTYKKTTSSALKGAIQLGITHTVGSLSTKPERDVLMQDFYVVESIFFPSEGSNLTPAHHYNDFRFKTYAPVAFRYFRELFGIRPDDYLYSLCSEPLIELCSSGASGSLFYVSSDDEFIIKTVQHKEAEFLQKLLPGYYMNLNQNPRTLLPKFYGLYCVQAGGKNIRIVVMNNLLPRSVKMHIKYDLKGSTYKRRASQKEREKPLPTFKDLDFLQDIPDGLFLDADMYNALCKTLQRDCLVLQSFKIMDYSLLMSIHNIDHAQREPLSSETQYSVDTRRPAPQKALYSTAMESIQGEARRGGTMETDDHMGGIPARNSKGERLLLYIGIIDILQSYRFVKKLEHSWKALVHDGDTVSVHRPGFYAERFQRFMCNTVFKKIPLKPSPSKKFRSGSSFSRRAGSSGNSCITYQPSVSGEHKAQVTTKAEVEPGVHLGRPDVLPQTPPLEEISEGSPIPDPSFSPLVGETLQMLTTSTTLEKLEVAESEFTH
Sequence of kinases (KINOMEscan panel) (Homo sapiens, UniProt O75116) (O75116 whole entry): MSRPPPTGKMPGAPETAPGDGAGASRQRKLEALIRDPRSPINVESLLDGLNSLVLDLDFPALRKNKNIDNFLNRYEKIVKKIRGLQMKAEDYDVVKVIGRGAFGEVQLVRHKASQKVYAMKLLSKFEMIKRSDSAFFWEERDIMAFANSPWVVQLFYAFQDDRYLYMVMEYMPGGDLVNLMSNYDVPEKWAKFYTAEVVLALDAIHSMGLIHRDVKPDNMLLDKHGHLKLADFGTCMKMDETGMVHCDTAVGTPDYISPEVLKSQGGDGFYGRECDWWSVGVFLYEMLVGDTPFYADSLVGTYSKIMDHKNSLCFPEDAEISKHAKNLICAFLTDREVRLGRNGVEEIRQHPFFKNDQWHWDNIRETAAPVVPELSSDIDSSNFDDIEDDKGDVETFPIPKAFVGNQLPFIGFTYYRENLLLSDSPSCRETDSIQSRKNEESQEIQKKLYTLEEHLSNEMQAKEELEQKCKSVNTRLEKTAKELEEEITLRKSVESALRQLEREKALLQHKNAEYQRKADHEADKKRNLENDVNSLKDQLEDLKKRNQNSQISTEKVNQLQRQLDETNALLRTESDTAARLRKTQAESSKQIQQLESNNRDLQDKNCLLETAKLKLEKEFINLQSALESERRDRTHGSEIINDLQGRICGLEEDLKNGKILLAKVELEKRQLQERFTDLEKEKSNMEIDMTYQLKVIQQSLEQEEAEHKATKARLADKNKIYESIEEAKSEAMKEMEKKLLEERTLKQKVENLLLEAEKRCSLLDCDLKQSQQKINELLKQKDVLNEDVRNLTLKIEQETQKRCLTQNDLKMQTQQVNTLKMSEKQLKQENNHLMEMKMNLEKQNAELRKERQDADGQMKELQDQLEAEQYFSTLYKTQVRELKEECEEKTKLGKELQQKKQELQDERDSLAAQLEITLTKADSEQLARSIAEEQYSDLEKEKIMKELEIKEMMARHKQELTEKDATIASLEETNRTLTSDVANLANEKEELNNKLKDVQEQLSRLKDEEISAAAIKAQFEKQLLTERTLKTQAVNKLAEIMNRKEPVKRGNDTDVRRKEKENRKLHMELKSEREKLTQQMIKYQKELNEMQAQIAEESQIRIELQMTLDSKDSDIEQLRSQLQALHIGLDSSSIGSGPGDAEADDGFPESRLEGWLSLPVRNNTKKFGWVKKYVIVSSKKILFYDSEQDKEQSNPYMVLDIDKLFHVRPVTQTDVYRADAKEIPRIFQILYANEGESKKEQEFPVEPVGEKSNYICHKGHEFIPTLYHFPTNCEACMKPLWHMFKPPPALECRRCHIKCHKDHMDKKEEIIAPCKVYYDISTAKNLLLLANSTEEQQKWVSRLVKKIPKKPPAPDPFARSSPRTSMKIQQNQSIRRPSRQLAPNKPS

Row | Compound | KINOMEscan DCLK1 [1] | KINOMEscan PIP5K1A [2] | KINOMEscan PIM3 [3] | KINOMEscan ROCK2 [4] | KINOMEscan ERN1 [5] | KINOMEscan PRKCI [6] | KINOMEscan IKBKB/IKK-beta [7] | KINOMEscan TYK2(JH2domain-pseudokinase) [8] | KINOMEscan TYK2(JH1domain-catalytic) [8] | KINOMEscan NEK7 [9]
1 | Cc1cccc(-c2nc(Nc3ccc4nn(C)cc4c3)c3ccccc3n2)n1 [NK167] | 49 | 49 | 0 | 0 | 0 | 0 | 5 | 0 | 0 | 0
2 | Cc1cccc(-c2nc(N(C)c3ccc4ncsc4c3)c3ccccc3n2)n1 [NK-161] | 36 | 52 | 0 | 0 | 11 | 0 | 25 | 12 | 0 | 0
